Reference: patent US20180147140A1, “Treatment and Prevention of ENT Infections” (priority 2016, published 2018)

Test system: chronic sinusitis
Assay: Patient Case 1: self-reported Health Related Quality of Life Scale and symptoms
Format: in vivo, human
Settings: treatments before the invention regime
Excerpt: Person in good health, whose daily med profile includes • Taking one statin generic drug daily • Taking one over the counter multiple vitamin daily • On average two medical exams each year • No diagnosed medical conditions or concerns
Symptoms—blocked nasal passages especially on the right side of the face, continuous hardened yellow translucent pus discharge from right nostril, minor periodic bleeding, nasal sound quality of voice, a propensity for cold virus to linger and a whistle sound while breathing through the nostrils.
The Kaiser treatment program consisted of a saline rinse bulb and recommendation of daily saline sinus rinsing along with a nasal steroid spray available over the counter. […] The patient continued occasional use of the regimen over the following 15 years with no noticeable improvement.
Treatment began on Mar. 9, 2016 with a new and unique product. The formulation used is Composition 1 in the Formulation Example.
Initial treatment was for 14 days, one dose daily in each nostril, approximately ¼ ounce (7.3 milliliters) administered with a nose dropper while the patient was lying down with chin inclined upward—sometimes with head over the edge of bed or pillow to increase the incline of the forehead to be lower than the chin. The patient remained unmoving for five minutes with no blowing of the nose to allow gravity saturation to reach the deep passages. […]

CC1(C)S[C@@H]2[C@H](NC(=O)[C@H](N)c3ccc(O)cc3)C(=O)N2[C@H]1C(=O)O [amoxicillin]
relief of sinusitis symptoms under earlier treatments: no relief from the sinusitis
